# Test results reported in US20030220521A1, “Renal-selective prodrugs for control of renal sympathetic nerve activity in the treatment of hypertension” (G.D. Searle & Co., priority 1989, published 2003).
# Like-named read-outs stand apart in the source and are kept apart here.
# How the values were obtained:
# [1] = target: T1, dopamine beta-hydroxylase (DBH; EC 1.14.17.1) (Bos taurus, UniProt P15101); assay: Assay V: in vitro DBH inhibition (norepinephrine production, HPLC); format: biochemical, bovine; settings: for inhibition at 20 µM: read-out: % Inhibition of DBH; for inhibitory effect on dopamine-β-hydroxylase activity: tested at 20 uM
# T1 construct: DBH, purified from bovine adrenals (Sigma); purchased Sigma; host or cells: bovine adrenals (tissue-purified)
# T1 sequence (P15101 1-610): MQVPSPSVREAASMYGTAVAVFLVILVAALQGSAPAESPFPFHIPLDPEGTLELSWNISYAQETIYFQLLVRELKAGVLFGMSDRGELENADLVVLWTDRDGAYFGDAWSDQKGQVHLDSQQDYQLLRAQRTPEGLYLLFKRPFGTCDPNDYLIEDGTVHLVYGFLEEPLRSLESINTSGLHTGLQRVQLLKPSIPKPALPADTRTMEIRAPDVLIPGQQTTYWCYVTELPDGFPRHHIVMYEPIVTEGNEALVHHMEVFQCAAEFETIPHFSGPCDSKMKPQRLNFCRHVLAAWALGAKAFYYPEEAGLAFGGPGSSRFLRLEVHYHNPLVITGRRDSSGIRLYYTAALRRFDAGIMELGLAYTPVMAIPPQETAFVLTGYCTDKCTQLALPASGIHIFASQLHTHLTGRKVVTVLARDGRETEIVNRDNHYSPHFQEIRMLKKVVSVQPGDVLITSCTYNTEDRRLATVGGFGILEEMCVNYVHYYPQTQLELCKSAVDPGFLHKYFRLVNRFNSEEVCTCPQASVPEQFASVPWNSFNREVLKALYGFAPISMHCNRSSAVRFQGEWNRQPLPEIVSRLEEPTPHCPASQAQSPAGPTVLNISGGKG
# Procedure: In order to characterize the relative potency of the Ex. #859 conjugate and its various potential metabolites as inhibitors of dopamine beta-hydroxylase (DBH; EC 1.14.17.1), the enzyme activity was determined in vitro in the presence of these compounds. DBH, purified from bovine adrenals (Sigma) was incubated at 37° C. in buffer containing 20 mM dopamine as substrate. The reaction was stopped by addition of 0.5 M perchloric acid. The precipitate was removed and the product of the enzyme activity (norepinephrine), contained in the clear supernatant, was analyzed by HPLC. The chromatographic separation used a reversed phase C-18 column run isocratically with 0.2 M ammonium acetate (pH 5.2) as the mobile phase. The amount of norepinephrine produced by the enzyme-substrate mixture was analyzed by measuring the peak intensity (absorbance) at 280 nm for norepinephrine as it was eluted at 4.5 minutes, using a photo-diode array detector. The result of adding either fusaric acid or the Ex. #859 conjugate to the incubate at various concentrations is shown in Table XXIII and FIG. 6. […] Fusaric acid and Ex. #859 and two more possible metabolites (Ex #858 and fusaric acid hydrazide) were tested at 20 uM.
# [2] = test system: spontaneously hypertensive rats; assay: Assay VI: acute in vivo effects on mean arterial pressure and renal blood flow in anesthetized SHR (i.v. or i.d.); parameters: species or system rat; settings: for MAP / RBF / acute effect on mean arterial pressure / acute effect on renal blood flow: 50 mg/kg i.v.
# Procedure: Spontaneously hypertensive rats were anesthetized with inactin (100 mg/kg, i.p.) and catheters were implanted into a carotid artery for measurement of mean arterial pressure (Gould model 3800 chart recorder; Statham pressure transducer model no. P23DB) and into a jugular vein for compound administrations (i.v. or i.d.). In addition, a flow probe was implanted around the left renal artery for measurement of renal blood flow using pulsed Doppler flowmetry. Rats were allowed 60 min to stabilize before 10 minutes of control recordings of mean arterial pressure and renal blood flow were obtained. Control measurements were followed by intravenous injection of 50 mg/kg of fusaric acid or the Ex. #859 conjugate. […] The Ex. #859 conjugate had no effect on mean arterial pressure at a dose of 100 mg/kg (n=4) during a 60 minute observation period. Renal blood flow (n=4) was unchanged 15 minutes after injection of the Ex. #859 conjugate but increased from 1.1 KHz (control period) to 3.5 KHz at 30 minutes postinjection.
# male SHR = assay: Assay XIII: renal blood flow experiments in anesthetized SHR (renal denervation, bulbocapnine); format: in vivo, rat; settings: for Mean arterial pressure / Renal Blood Flow: conjugate alone
# Procedure: This experiment was run to determine the roles of the renal sympathetic nerves and dopamine in the antihypertensive response to Ex. #859. For renal blood flow experiments, male SHR (11-13 weeks of age; Harlan Sprague-Dawley, Inc., Indianapolis, Ind.) were anesthetized (Inactin, 100 mg/kg, i.p.), catheters were implanted in a jugular vein and carotid artery, and an electromagnetic flow probe (Carolina Medical Electronics, Inc., King, N.C.) was placed on the left renal artery. Care was taken not to damage the renal nerves. A tracheal catheter maintained airway patency. The SHR were placed on a heated pad to maintain normal body temperature (Harvard Apparatus, South Natick, Mass.). In one group of SHR (n=6) surgical renal denervation was performed (prior to implanting the flow probe) through a left flank incision by surgically stripping the renal artery and vein of adventitia and cutting all visible renal nerve bundles under a dissection microscope (×25) and coating the vessels with a solution of 10% phenol in 95% ethanol, as previously described (9,10). In a second group of SHR (n=6) bulbocapnine (a dopamine receptor antagonist) was infused at 100 μg/kg/min starting 30 minutes prior to injection of Ex. #859 (50 mg/kg, i.v.) and continued for the duration of the study. In a third group of SHR (n=6) Ex. #859 (50 mg/kg, i.v.) was administered alone. In a final group of SHR (n=6) vehicle (0.9% NaCl) was administered. SHR were allowed 60 minutes for stabilization after surgery. After the stabilization period, 15 minutes of control mean arterial pressure and renal blood flow were obtained. Mean arterial pressure and renal blood flow were recorded for one hour.
# [3] = anesthetized SHR, 60 minute observation
SMILES,Norepinephrine Peak Intensity (Abs 280) in the presence of compound ([1]; compound 0.10 μM) [Abs 280],Norepinephrine Peak Intensity (Abs 280) in the presence of compound ([1]; compound 1.00 μM) [Abs 280],Norepinephrine Peak Intensity (Abs 280) in the presence of compound ([1]; compound 10.00 μM) [Abs 280],Norepinephrine Peak Intensity (Abs 280) in the presence of compound ([1]; compound 100.00 μM) [Abs 280],inhibitory effect on dopamine-β-hydroxylase activity [1],MAP ([2]; 15 min) [mm Hg],RBF ([2]; 15 min) [KHz],MAP ([2]; 30 min) [mm Hg],RBF ([2]; 30 min) [KHz],MAP ([2]; 45 min) [mm Hg],RBF ([2]; 45 min) [KHz],MAP ([2]; 60 min) [mm Hg],RBF ([2]; 60 min) [KHz],MAP ([2]; time zero (control)) [mm Hg],RBF ([2]; time zero (control)) [KHz],"acute effect on mean arterial pressure [2, 3]","acute effect on renal blood flow [2, 3]",further results
"CCCCc1ccc(C(=O)NNC(=O)CCC(NC(C)=O)C(=O)O)nc1 [Ex. #859, N-acetyl-L-glutamic acid, 5-[(5-butyl-2-pyridinyl)-carbonyl]hydrazide]",0.51,0.52,0.61,0.53,Only fusaric acid had significant inhibitory effects,163,3.8,164,4.0,157,4.6,159,4.8,156,2.4,no acute effects,increased renal blood flow to a greater degree than fusaric acid,"DBH inhibitory activity ([1]; concentrations up to 100 uM): no appreciable activity; inhibition at 20 µM ([1]; test compound 20 μM): 1.5%; Renal blood flow change ([2]; anesthetized SHR, i.d. 100 mg/kg, 15 minutes after injection): unchanged; Renal Blood Flow ([2]; anesthetized SHR, i.d. 100 mg/kg, 30 minutes postinjection): 3.5 KHz; effect on mean arterial pressure ([2]; anesthetized SHR, i.d. 100 mg/kg, 60 minute observation): no effect; Renal Blood Flow ([2]; anesthetized SHR, i.d. 100 mg/kg, control period): 1.1 KHz; Renal blood flow course ([2]; anesthetized SHR, i.d. 100 mg/kg, following 30 minute observation period (30-60 min)): remained at this level; effect on renal blood flow (male SHR; anesthetized SHR, 50 mg/kg i.v. after surgical renal denervation): not changed; effect on renal blood flow (male SHR; anesthetized SHR, 50 mg/kg i.v. alone, 60 minutes after injection): increased; effect on renal blood flow (male SHR; anesthetized SHR, 50 mg/kg i.v. during bulbocapnine infusion (100 μg/kg/min)): not changed; effect on mean arterial pressure (male SHR; anesthetized SHR, 50 mg/kg i.v., all groups): not changed; Mean arterial pressure (male SHR; time 0 minutes): 149 ± 8 mmHg; Renal Blood Flow (male SHR; time 0 minutes): 7 ± 2 mL/min; Mean arterial pressure (male SHR; time 60 minutes): 149 ± 7 mmHg; Renal Blood Flow (male SHR; time 60 minutes): 12 ± 2 mL/min"
"CCCCc1ccc(C(=O)O)nc1 [Fusaric Acid, 5-n-butylpicolinic acid]",0.59,0.53,0.14,0.00,significant inhibitory effects,111,3.1,106,3.2,103,3.4,99,3.9,155,2.5,decreased mean arterial pressure,increased renal blood flow,"concentration above which the enzyme is inhibited ([1]; 20 mM dopamine as substrate, 37° C): > 1 µM; Norepinephrine Peak Intensity (Abs 280) in the presence of compound ([1]; compound 0.01 μM): 0.59 Abs 280; Norepinephrine Peak Intensity (Abs 280) in the presence of compound ([1]; compound 0.50 μM): 0.60 Abs 280; Norepinephrine Peak Intensity (Abs 280) in the presence of compound ([1]; compound 5.00 μM): 0.25 Abs 280; Norepinephrine Peak Intensity (Abs 280) in the presence of compound ([1]; compound 50.00 μM): 0.00 Abs 280; inhibition at 20 µM [1]: 75.4%"
